We go through one compound from US9328137B2, “Hydrogel-forming material” (NISSAN CHEMICAL INDUSTRIES, LTD., priority 2011, dated 2016).

Residues, ends and D or L forms follow the SMILES beside them. *: point of attachment. Palmitoyl = CCCCCCCCCCCCCCCC(=O)*

Series [1] in a line: Evaluation of solubility of N-palmitoyl-Gly-His with each additive (heating and stirring at 80° C., open system, visual inspection). It counts as physicochemical. The conditions noted are these: 0.05% or greater acetic acid, sodium acetate or phosphoric acid, 0.1% disodium hydrogen phosphate or trisodium citrate, 0.5% citric, succinic, tartaric, lactic acid or their sodium salts, 1.0% trimellitic acid or trisodium trimellitate.
Description: Next, heating and stirring were performed, with a cap of the screw bottle being open (that is, an open system), in a water bath (NWB-180N, manufactured by Nissinrika K. K.) for 60 minutes at a maximum until a transparent dispersion state was confirmed at 80° C. […] Next, heating and stirring were performed, with a cap of the screw bottle being open, in a water bath (NWB-180N, manufactured by Nissinrika K. K.) for 60 minutes at 80° C.
Next, heating and stirring were performed, with a cap of the screw bottle being open, in a water bath (NWB-180N, manufactured by Nissinrika K. K.) for 60 minutes at a maximum until a transparent dispersion state was confirmed at 80° C.

Series [2] can be described thus: Evaluation of hydrogelation ability (overnight cooling at room temperature, inversion of the bottle). It counts as physicochemical. Conditions: same additive amounts as; after stirring at 80° C. in an open system. An excerpt: Next, the solution was allowed to cool at room temperature overnight.

Take `CCCCCCCCCCCCCCCC(=O)NCC(=O)N[C@@H](Cc1c[nH]cn1)C(=O)O` [N-palmitoyl-Gly-His] (Palmitoyl-Gly-His-OH): in series [1], the “dissolution in water (summary of Examples 1 to 14, in words)” value is listed as “could be easily dissolved in water”. Also, the “hydrogel formation (summary of Examples 1 to 14, in words)” value in series [2] is recorded as “a hydrogel could be obtained”.
